{"source": "patent US20030138485A1", "about": "“Disintegrant” (DAIICHI PHARMACEUTICAL CO., LTD., priority 1998, published 2003)", "key": {"[1]": {"assay": "Measurement of viscosity of a saturated aqueous solution", "type": "physicochemical", "conditions": "B-type viscometer", "protocol": "(2) Measurement of Viscosity of a Saturated Aqueous Solution\nA saturated aqueous solution of a sample was prepared at 37° C., and the resultant solution was filtered by use of a membrane filter. The viscosity of the solution was measured by use of the resultant filtrate at 37° C. by means of a B-type viscometer."}, "physchem": {"assay": "physchem", "conditions": "water"}, "[2]": {"assay": "Increase in weight by moisture absorption", "type": "physicochemical", "conditions": "for moisture absorption (in words): 25° C., relative humidity 75%, seven days, Table 2; for increase in weight by moisture absorption: sample stored 25° C., 75% open air, 7 days", "protocol": "(7) Increase in Weight by Moisture Absorption\nA sample tablet was weighed before and after moisture absorption, and the increase in weight of the tablet by moisture absorption (%) was calculated.\nIn test Example 2, erythritol and trehalose (in the form of hydrous crystals, products of Hayashibara Shoji Inc.) and xylitol and maltose (in the form of anhydrous crystals, products of Nihon Shokuhin Kako Co., Ltd.) were stored for seven days at a temperature of 25° C. and a relative humidity of 75%. Thereafter, each of these was subjected to measurement of increase in weight by moisture absorption (%). In Reference Example 2, the increases in weight by moisture absorption (%) of cornstarch, low substituted hydroxypropylcellulose, carmellose, carmellose calcium, and carmellose sodium were measured in the same manner as in Test Example 2. These compounds had been dried in a drier at 80° C. for one hour, and then employed as samples."}, "[3]": {"conditions": "general description; cited from earlier work"}}, "data": [{"smiles": "OC[C@@H](O)[C@@H](O[C@@H]1O[C@H](CO)[C@H](O)[C@H](O)[C@H]1O)[C@H](O)[C@@H](O)CO", "note": "[Hydrogenated lactose, reference compound]", "values": [{"measurement": "Viscosity (37° C.)", "setting": "[1]", "value": 218, "unit": "mPa · s"}]}, {"smiles": "OC[C@H]1O[C@@](CO)(O[C@H]2O[C@H](CO)[C@@H](O)[C@H](O)[C@H]2O)[C@@H](O)[C@@H]1O", "note": "[Sucrose, reference compound]", "values": [{"measurement": "solubility thermodynamic", "setting": "physchem", "value": 780, "unit": "mg/mL"}, {"measurement": "Viscosity (37° C.)", "setting": "[1]", "value": 1120, "unit": "mPa · s"}]}, {"smiles": "CC(=O)[O-].[Na+]", "note": "[Sodium acetate]", "values": [{"measurement": "Viscosity (37° C.)", "setting": "[1]", "value": 5.2, "unit": "mPa · s"}]}, {"smiles": "OC[C@H]1O[C@H](O[C@H]2[C@H](O)[C@@H](O)[C@H](O)O[C@@H]2CO)[C@H](O)[C@@H](O)[C@@H]1O", "note": "[Maltose]", "values": [{"measurement": "moisture absorption (in words)", "setting": "[2]", "value": "absorb little moisture"}, {"measurement": "increase in weight by moisture absorption", "setting": "[2]", "value": 0.06, "unit": "%"}, {"measurement": "Viscosity (37° C.)", "setting": "[1]", "value": 38, "unit": "mPa · s"}]}, {"smiles": "OC[C@H]1O[C@@H](O[C@H]2[C@H](O)[C@@H](O)C(O)O[C@@H]2CO)[C@H](O)[C@@H](O)[C@H]1O", "note": "(some centres unmarked) [Lactose, reference compound]", "values": [{"measurement": "Viscosity (37° C.)", "setting": "[1]", "value": 1.7, "unit": "mPa · s"}]}, {"smiles": "OC[C@@H](O)[C@@H](O)[C@H](O)[C@H](O)CO", "note": "[D-Mannitol, reference compound]", "values": [{"measurement": "solubility thermodynamic", "setting": "physchem", "value": 240, "unit": "mg/mL"}, {"measurement": "Viscosity (37° C.)", "setting": "[1]", "value": 1.6, "unit": "mPa · s"}]}, {"smiles": "OC[C@@H](O)[C@H](O)[C@@H](O)CO", "note": "[Xylitol]", "values": [{"measurement": "moisture absorption (in words)", "setting": "[2]", "value": "absorb little moisture"}, {"measurement": "increase in weight by moisture absorption", "setting": "[2]", "value": 0.05, "unit": "%"}, {"measurement": "solubility thermodynamic", "setting": "physchem", "value": 740, "unit": "mg/mL"}, {"measurement": "Viscosity (37° C.)", "setting": "[1]", "value": 37, "unit": "mPa · s"}, {"measurement": "heat of dissolution", "setting": "[3]", "value": -35, "unit": "cal/g"}, {"measurement": "hygroscopicity (in words)", "setting": "[3]", "value": "slightly hygroscopic"}, {"measurement": "solubility in water (in words)", "setting": "[3]", "value": "very easily dissolved in water"}]}, {"smiles": "OC[C@H]1O[C@H](O[C@H]2O[C@H](CO)[C@@H](O)[C@H](O)[C@H]2O)[C@H](O)[C@@H](O)[C@@H]1O", "note": "[Trehalose]", "values": [{"measurement": "moisture absorption (in words)", "setting": "[2]", "value": "absorb little moisture"}, {"measurement": "increase in weight by moisture absorption", "setting": "[2]", "value": 0.99, "unit": "%"}, {"measurement": "solubility thermodynamic", "setting": "physchem", "value": 500, "unit": "mg/mL"}, {"measurement": "Viscosity (37° C.)", "setting": "[1]", "value": 11, "unit": "mPa · s"}, {"measurement": "hygroscopicity (in words)", "setting": "[3]", "value": "not hygroscopic"}, {"measurement": "solubility in water (in words)", "setting": "[3]", "value": "easily dissolved in water"}]}, {"smiles": "OC[C@@H](O)[C@@H](O)[C@H](O)[C@@H](O)CO", "note": "[D-Sorbitol, reference compound]", "values": [{"measurement": "Viscosity (37° C.)", "setting": "[1]", "value": "2090 or more mPa · s"}]}, {"smiles": "CC(=O)[O-].[K+]", "note": "[Potassium acetate]", "values": [{"measurement": "Viscosity (37° C.)", "setting": "[1]", "value": 30, "unit": "mPa · s"}]}, {"smiles": "OC[C@@H](O)[C@@H](O)CO", "note": "[Erythritol]", "values": [{"measurement": "moisture absorption (in words)", "setting": "[2]", "value": "absorb little moisture"}, {"measurement": "increase in weight by moisture absorption", "setting": "[2]", "value": 0.03, "unit": "%"}, {"measurement": "solubility thermodynamic", "setting": "physchem", "value": 450, "unit": "mg/mL"}, {"measurement": "Viscosity (37° C.)", "setting": "[1]", "value": 3.5, "unit": "mPa · s"}, {"measurement": "heat of dissolution", "setting": "[3]", "value": -42.9, "unit": "cal/g"}, {"measurement": "hygroscopicity (in words)", "setting": "[3]", "value": "not hygroscopic"}, {"measurement": "solubility in water (in words)", "setting": "[3]", "value": "easily dissolved in water"}]}]}
